These results are taken from PubChem BioAssay AID192 (DTP/NCI, 2004).

Several values for one entry are separate records, joined by “and”; a condition that tells them apart may be missing. Equal entries are not always repeated. Inconclusive results and toxic doses are left out.

This experiment relates to BDF1 mice, B16 melanoma ip, median survival T/C. The experiment can be described thus: NCI In Vivo Anticancer Drug Screen. Data for tumor model B16 Melanoma (intraperitoneal) in B6D2F1 (BDF1) mice. As to conditions: endpoint: median survival time, higher = longer survival. The method in brief:
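In this screen, activity was judged from survival or tumor size in treated versus vehicle-treated tumor-bearing mice, reported as T/C.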

Where [1] appears, read: dose: 100.0 mg/kg/injection, schedule: Q01DX009 (ip), vehicle: saline.
Where [2] appears, read: dose: 200.0 mg/kg/injection, schedule: Q01DX009 (ip), vehicle: saline.
Setting [3] is: dose: 400.0 mg/kg/injection, schedule: Q01DX009 (ip), vehicle: saline.
Setting [4] is: dose: 800.0 mg/kg/injection, schedule: Q01DX009 (ip), vehicle: saline.
Where [5] appears, read: dose: 25.0 mg/kg/injection, schedule: Q01DX009 (ip), vehicle: saline with Tween-80.
[6] abbreviates: dose: 200.0 mg/kg/injection, schedule: Q01DX009 (ip), vehicle: saline with Tween-80.
Setting [7] is: dose: 100.0 mg/kg/injection, schedule: Q01DX009 (ip), vehicle: Klucel (hydroxypropylcellulose) (HPC).
[8] abbreviates: dose: 200.0 mg/kg/injection, schedule: Q01DX009 (ip), vehicle: Klucel (hydroxypropylcellulose) (HPC).
The mark [9] stands for this setting: dose: 400.0 mg/kg/injection, schedule: Q01DX009 (ip), vehicle: Klucel (hydroxypropylcellulose) (HPC).
Setting [10] is: dose: 3.13 mg/kg/injection, schedule: Q01DX009 (ip), vehicle: saline.
[11] abbreviates: dose: 6.25 mg/kg/injection, schedule: Q01DX009 (ip), vehicle: saline.
[12] abbreviates: dose: 12.5 mg/kg/injection, schedule: Q01DX009 (ip), vehicle: Klucel (hydroxypropylcellulose) (HPC).
[13] abbreviates: dose: 25.0 mg/kg/injection, schedule: Q01DX009 (ip), vehicle: Klucel (hydroxypropylcellulose) (HPC).
Setting [14] is: dose: 50.0 mg/kg/injection, schedule: Q01DX009 (ip), vehicle: Klucel (hydroxypropylcellulose) (HPC).
Setting [15] is: dose: 100.0 mg/kg/injection, schedule: Q01DX009 (ip), vehicle: saline with Tween-80.

For the molecule `Clc1ccc2c(c1)C(N1CCOCC1)c1cc(Cl)cc(Cl)c1-2` (configuration not stated), the T/C was 102 % of control under setting [1], 95 % of control under setting [2], 90 % of control under setting [3] and 90 % of control under setting [4].
On to `O=[N+]([O-])c1cc(F)ccc1O`, for which the T/C under setting [5] is 100 % of control.
With `COc1cc(NC(=O)CC(C)=O)cc(OC)c1OC`, the T/C is, setting by setting: under setting [1], 112 % of control; (dose: 132.0 mg/kg/injection, schedule: Q01DX009 (ip), vehicle: saline with Tween-80) 100 % of control; under setting [6], 95 % of control; (dose: 300.0 mg/kg/injection, schedule: Q01DX009 (ip), vehicle: saline with Tween-80) 95 % of control; under setting [3], 90 % of control.
For the molecule `Cc1ccc(Nc2ccc([N+](=O)[O-])cc2[N+](=O)[O-])c(C)c1`, the T/C under setting [7] was 93 % of control, the T/C under setting [8] was 98 % of control and the T/C under setting [9] is 97 % of control.
Turning to `C=CCN(CC=C)P(=O)(N1CC1)N1CC1C` (configuration not stated), the T/C is 112 % of control (dose: 0.36 mg/kg/injection, schedule: Q01DX009 (ip), vehicle: saline); 110 % of control (dose: 0.5 mg/kg/injection, schedule: Q01DX009 (ip), vehicle: saline); 116 % of control (dose: 0.83 mg/kg/injection, schedule: Q01DX009 (ip), vehicle: saline); 114 % of control (dose: 1.25 mg/kg/injection, schedule: Q01DX009 (ip), vehicle: saline); 99 % of control (dose: 1.8 mg/kg/injection, schedule: Q01DX009 (ip), vehicle: saline).
With `C=C1CCN(c2ccc(F)cc2)C1=O`, the T/C reads like this: (dose: 4.0 mg/kg/injection, schedule: Q01DX009 (ip), vehicle: saline + alcohol) 104 % of control; (dose: 16.0 mg/kg/injection, schedule: Q01DX009 (ip), vehicle: saline + alcohol) 100 % of control; (dose: 32.0 mg/kg/injection, schedule: Q01DX009 (ip), vehicle: saline + alcohol) 112 % of control; (dose: 64.0 mg/kg/injection, schedule: Q01DX009 (ip), vehicle: saline + alcohol) 110 % of control.
As for `CN(N=O)C(N)=O`, the T/C was 114 % of control under setting [10] and 116 % of control under setting [11].
Take `C=CCNC(=S)Nc1cc(Cl)ccc1C`: the T/C is 103 % of control (dose: 50.0 mg/kg/injection, schedule: Q04DX003 (ip), vehicle: Klucel (hydroxypropylcellulose) (HPC)) and 100 % of control (dose: 100.0 mg/kg/injection, schedule: Q04DX003 (ip), vehicle: Klucel (hydroxypropylcellulose) (HPC)).
For `O=C(Cl)C1(Br)CC2c3ccccc3C1([N+](=O)[O-])c1ccccc12` (configuration not stated), the T/C is, setting by setting: under setting [12], 100 % of control; under setting [13], 97 % of control; under setting [14], 97 % of control; under setting [7], 91 % of control; under setting [8], 88 % of control.
In the case of `Cc1ncc(CO)c(CO)c1O`, the T/C was 100 % of control (dose: 50.0 mg/kg/injection, schedule: Q01DX009 (ip), vehicle: saline); 101 % of control (dose: 50.0 mg/kg/injection, schedule: Q08HX018 (ip), vehicle: saline); 100 % of control under setting [1]; 99 % of control (dose: 100.0 mg/kg/injection, schedule: Q08HX018 (ip), vehicle: saline); 100 % of control under setting [2]; 95 % of control (dose: 200.0 mg/kg/injection, schedule: Q08HX018 (ip), vehicle: saline). Further, the T/C is 91 % of control under setting [3]; 92 % of control (dose: 400.0 mg/kg/injection, schedule: Q08HX018 (ip), vehicle: saline); 87 % of control under setting [4]; 89 % of control (dose: 800.0 mg/kg/injection, schedule: Q08HX018 (ip), vehicle: saline).
With `C/C=C(\C)C(=O)OC1C(C)C2(O)C(C=C(CO)CC3(O)C(=O)C(C)=CC32)C2C(C)(C)C12OC(=O)CCCCCCCCC` (configuration not stated), the T/C is, setting by setting: (dose: 0.13 mg/kg/injection, schedule: Q01DX009 (ip), vehicle: saline + alcohol) 102 % of control and 104 % of control; (dose: 0.25 mg/kg/injection, schedule: Q01DX009 (ip), vehicle: saline + alcohol) 92 % of control and 94 % of control; (dose: 0.5 mg/kg/injection, schedule: Q01DX009 (ip), vehicle: saline + alcohol) 92 % of control.
Regarding `CCC/C(C)=C(/C#N)CC`, the T/C reads like this: under setting [13], 105 % of control; under setting [14], 103 % of control; under setting [7], 109 % of control.
Regarding `COC(=O)C12Oc3ccc(-c4ccc5c(c4O)C(O)=C4C(=O)CC(C)C(O)C4(C(=O)OC)O5)c(O)c3C(O)=C1C(=O)CC(C)C2O` (configuration not stated), the T/C (dose: 0.15 mg/kg/injection, schedule: Q01DX009 (ip), vehicle: saline with Tween-80) was 98 % of control; the T/C (dose: 0.31 mg/kg/injection, schedule: Q01DX009 (ip), vehicle: saline with Tween-80) was 93 % of control; the T/C (dose: 0.62 mg/kg/injection, schedule: Q01DX009 (ip), vehicle: saline with Tween-80) is 104 % of control; the T/C (dose: 1.25 mg/kg/injection, schedule: Q01DX009 (ip), vehicle: saline with Tween-80) was 95 % of control.
For `CSCCC(C#N)(CCN(C)C)c1ccccc1` (configuration not stated), the T/C reads like this: under setting [5], 113 % of control; (dose: 50.0 mg/kg/injection, schedule: Q01DX009 (ip), vehicle: saline with Tween-80) 107 % of control; under setting [15], 111 % of control.
Regarding `COc1ccc(NC2=CC(C)(C(=O)O)OC2=O)cc1` (configuration not stated), the T/C by setting is: (dose: 12.5 mg/kg/injection, schedule: Q04DX003 (ip), vehicle: saline with Tween-80) 93 % of control; (dose: 25.0 mg/kg/injection, schedule: Q04DX003 (ip), vehicle: saline with Tween-80) 102 % of control; (dose: 50.0 mg/kg/injection, schedule: Q04DX003 (ip), vehicle: saline with Tween-80) 100 % of control.
With `O=C(Nc1ccccc1C(F)(F)F)c1ccc(Cl)cc1Cl`, the T/C was 97 % of control under setting [15] and 92 % of control under setting [6].
On to `NC(=O)c1ncn(C2OC(CO)C(O)C2O)c1O` (configuration not stated), for which the T/C by setting is: under setting [13], 104 % of control; under setting [14], 114 % of control; under setting [7], 109 % of control; under setting [8], 111 % of control.
As for `CCOCCN1CCN(CCCN2c3ccccc3Sc3ccc(C(F)(F)F)cc32)CC1`, the T/C was 105 % of control (dose: 0.09 mg/kg/injection, schedule: Q01DX009 (ip), vehicle: water); 113 % of control (dose: 0.19 mg/kg/injection, schedule: Q01DX009 (ip), vehicle: water); 100 % of control (dose: 0.39 mg/kg/injection, schedule: Q01DX009 (ip), vehicle: water).
With `CC(=O)O[C@H]1CC[C@H]2[C@@H]3CC[C@H]4CC=C(C#N)C[C@]4(C)[C@H]3CC[C@]12C`, the T/C by setting is: under setting [12], 86 % of control; under setting [13], 94 % of control; under setting [14], 88 % of control.
Regarding `NC(N)=Nc1ccc(C(=O)Oc2ccc([N+](=O)[O-])cc2CN2CCCCC2)cc1`, the T/C was 100 % of control under setting [10] and 100 % of control under setting [11].
For the molecule `Cc1ccc(NCCN(C)C)c2c(=O)c3cc(O)ccc3sc12`, the T/C runs as follows: (dose: 3.0 mg/kg/injection, schedule: Q01DX009 (ip), vehicle: Klucel (hydroxypropylcellulose) (HPC)) 119 % of control; (dose: 12.0 mg/kg/injection, schedule: Q01DX009 (ip), vehicle: Klucel (hydroxypropylcellulose) (HPC)) 157 % of control; (dose: 24.0 mg/kg/injection, schedule: Q01DX009 (ip), vehicle: Klucel (hydroxypropylcellulose) (HPC)) 160 % of control; under setting [13], 162 % of control.
Take `O=c1[nH]c(Cl)ncc1F`: for the setting “dose: 37.5 mg/kg/injection, schedule: Q01DX009 (ip), vehicle: Klucel (hydroxypropylcellulose) (HPC)”, the T/C was 87 % of control.
Take `Cc1cccc(C)c1NC(=O)Nc1ccc(Cl)cc1`: the T/C under setting [7] was 93 % of control, the T/C under setting [8] is 93 % of control and the T/C under setting [9] is 87 % of control.
`NCCc1ccc(S(=O)(=O)O)cc1[N+](=O)[O-]`: the T/C reads like this: (dose: 50.0 mg/kg/injection, schedule: Q01DX009 (ip), vehicle: carboxymethylcellulose (CMC)) 96 % of control; (dose: 100.0 mg/kg/injection, schedule: Q01DX009 (ip), vehicle: carboxymethylcellulose (CMC)) 86 % of control; (dose: 200.0 mg/kg/injection, schedule: Q01DX009 (ip), vehicle: carboxymethylcellulose (CMC)) 89 % of control.
